Tests used:
Experiment in all cases: relative viability (nuclei count vs DMSO), 5 days (fraction); higher = more cells survive
Carfilzomib + Bortezomib = compound: CC(C)C[C@H](NC(=O)[C@H](CCc1ccccc1)NC(=O)CN1CCOCC1)C(=O)N[C@@H](Cc1ccccc1)C(=O)N[C@@H](CC(C)C)C(=O)[C@@]1(C)CO1 [Carfilzomib] + CC(C)C[C@H](NC(=O)[C@H](Cc1ccccc1)NC(=O)c1cnccn1)B(O)O [Bortezomib] (partner 0.002 µM)
Method in brief: (§1)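 One day after seeding in 1536-well plates, lung cancer cell lines were dosed by pin tool. Dosing was either single-drug or a fixed anchor-drug dose plus five library-drug doses (not always all listed) in √10 steps. After 5 days, nuclei were stained in one fix-and-stain step and counted on 4× images, and relative viability is the nuclei count of treated wells over that of vehicle wells, given as the median of duplicate plates.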

Olaparib + Vorinostat = compound: O=C(c1cc(Cc2n[nH]c(=O)c3ccccc23)ccc1F)N1CCN(C(=O)C2CC2)CC1 [Olaparib] + O=C(CCCCCCC(=O)Nc1ccccc1)NO [Vorinostat] (partner 1 µM)
Method in brief: as §1

Crizotinib + Bortezomib = compound: C[C@@H](Oc1cc(-c2cnn(C3CCNCC3)c2)cnc1N)c1c(Cl)ccc(F)c1Cl [Crizotinib] + CC(C)C[C@H](NC(=O)[C@H](Cc1ccccc1)NC(=O)c1cnccn1)B(O)O [Bortezomib] (partner 0.002 µM)
Method in brief: as §1

Carfilzomib + AZD7762 = compound: CC(C)C[C@H](NC(=O)[C@H](CCc1ccccc1)NC(=O)CN1CCOCC1)C(=O)N[C@@H](Cc1ccccc1)C(=O)N[C@@H](CC(C)C)C(=O)[C@@]1(C)CO1 [Carfilzomib] + NC(=O)Nc1cc(-c2cccc(F)c2)sc1C(=O)N[C@H]1CCCNC1 [AZD7762] (partner 0.2 µM)
Method in brief: as §1

Cell Line | relative viability (Carfilzomib + Bortezomib; first compound 0.003162 µM) | relative viability (Carfilzomib + Bortezomib; first compound 0.01 µM) | relative viability (Carfilzomib + Bortezomib; first compound 0.03162 µM) | relative viability (Carfilzomib + Bortezomib; first compound 0.1 µM) | relative viability (Olaparib + Vorinostat; first compound 0.08 µM) | relative viability (Olaparib + Vorinostat; first compound 0.253 µM) | relative viability (Olaparib + Vorinostat; first compound 2.53 µM) | relative viability (Olaparib + Vorinostat; first compound 8 µM) | relative viability (Crizotinib + Bortezomib; first compound 0.01 µM) | relative viability (Crizotinib + Bortezomib; first compound 0.03162 µM) | relative viability (Crizotinib + Bortezomib; first compound 0.1 µM) | relative viability (Crizotinib + Bortezomib; first compound 0.3162 µM) | relative viability (Crizotinib + Bortezomib; first compound 1 µM) | relative viability (Carfilzomib + AZD7762; first compound 0.001 µM) | relative viability (Carfilzomib + AZD7762; first compound 0.003162 µM) | relative viability (Carfilzomib + AZD7762; first compound 0.01 µM) | relative viability (Carfilzomib + AZD7762; first compound 0.03162 µM) | relative viability (Carfilzomib + AZD7762; first compound 0.1 µM) | relative viability (Carfilzomib + Bortezomib; first compound 0.001 µM)
NCI-H1650 | 0.19 | 0.17 | 0.195 | 0.197 | 0.531 | 0.522 | 0.671 | 0.476 | 0.188 | 0.173 | 0.205 | 0.159 | 0.2 | – | – | – | – | – | –
A-427 | 0.963 | 0.727 | 0.436 | 0.131 | 0.911 | 0.863 | 0.871 | 0.76 | 0.91 | 1.03 | 0.953 | – | 0.999 | 0.725 | 0.82 | 0.696 | 0.527 | 0.173 | 0.995
CAL-12T | 1.17 | 1.13 | 0.691 | 0.195 | 1.15 | 0.663 | 0.917 | 0.687 | 0.991 | 1.02 | 1.13 | – | 0.907 | 0.607 | 0.719 | 0.787 | 0.586 | 0.26 | –
EPLC-272H | 0.626 | 0.655 | 0.105 | 0.0698 | 0.513 | 0.386 | 0.472 | 0.4 | 0.87 | 0.865 | 1.03 | 0.912 | – | 0.195 | 0.253 | 0.209 | 0.159 | 0.0687 | 0.738
NCI-H23 | 0.92 | 0.445 | 0.165 | 0.125 | 0.957 | 0.542 | 0.434 | 0.256 | 1.02 | 1.09 | 1.03 | – | 0.979 | 0.232 | 0.267 | 0.196 | 0.112 | 0.122 | 1.01
NCI-H1563 | 0.985 | 0.836 | 0.513 | 0.477 | – | – | – | – | 0.744 | 0.859 | 0.857 | 0.779 | 0.832 | – | – | – | – | – | 0.815
UMC-11 | 0.887 | 0.701 | 0.533 | 0.179 | 0.392 | 0.324 | 0.365 | 0.208 | 0.615 | 0.989 | 0.695 | 0.199 | 0.9 | – | – | – | – | – | 0.66
NCI-H1395 | – | – | – | – | 0.775 | 0.501 | 0.516 | 0.419 | – | – | – | – | – | – | 0.451 | 0.399 | 0.346 | 0.327 | –
NCI-H2023 | 1.07 | 1.01 | 0.184 | 0.0639 | 0.734 | 0.531 | 0.507 | 0.315 | 0.813 | 0.964 | 0.88 | 0.647 | 0.806 | – | – | – | – | – | 0.951
Calu-6 | 0.713 | 0.299 | 0.119 | 0.106 | – | – | – | – | 0.936 | 0.988 | 1.03 | 0.892 | 0.958 | – | – | – | – | – | 0.886
NCI-H2342 | – | – | – | – | 0.771 | 0.699 | 0.66 | 0.653 | – | – | – | – | – | 0.462 | 0.513 | 0.689 | 0.609 | 0.347 | –
NCI-H522 | – | – | – | – | 1.04 | 0.812 | 0.797 | 0.758 | – | – | – | – | – | 0.782 | 0.901 | 0.925 | 0.428 | 0.337 | –
COR-L 105 | 0.658 | 0.527 | 0.265 | 0.239 | 0.782 | 0.717 | 0.781 | 0.79 | 0.825 | 0.778 | 0.787 | 0.699 | 0.941 | – | – | – | – | – | 0.724
SW 900 | – | – | – | – | 0.462 | 0.446 | 0.443 | 0.515 | – | – | – | – | – | – | 0.67 | 0.226 | 0.168 | 0.206 | –
NCI-H2228 | 0.54 | 0.257 | 0.0941 | 0.156 | 0.587 | 0.541 | 0.742 | 0.449 | 0.84 | 0.874 | 0.833 | 0.647 | 0.346 | – | – | – | – | – | 0.94
NCI-H2009 | 1.26 | 0.78 | 0.122 | 0.0487 | 0.836 | 0.666 | 0.674 | 0.645 | 0.896 | 1.04 | 1.09 | 0.837 | 0.96 | – | – | – | – | – | 1.11
NCI-H1299 | 1.09 | 1.02 | 0.986 | 0.156 | – | – | – | – | 1.04 | 1.07 | 1 | 1.02 | 0.996 | – | – | – | – | – | 0.997
COR-L23 | 0.877 | 0.253 | 0.0785 | 0.0696 | 0.508 | 0.43 | 0.228 | 0.239 | 0.927 | 0.9 | 0.915 | 0.989 | 0.96 | – | – | – | – | – | 0.94
LK-2 | – | – | – | – | 0.391 | 0.341 | 0.345 | 0.268 | – | – | – | – | – | 0.369 | 0.519 | 0.399 | 0.0916 | 0.0762 | –
NCI-H358 | – | – | – | – | 0.697 | 0.613 | 0.634 | 0.551 | – | – | – | – | – | 0.449 | 0.615 | 0.63 | 0.255 | 0.226 | –
NCI-H520 | 0.179 | 0.142 | 0.129 | 0.132 | 0.822 | 0.684 | 0.554 | 0.341 | 0.492 | 0.5 | 0.586 | 0.522 | 0.331 | – | – | – | – | – | 0.45
NCI-H1944 | – | – | – | – | 0.534 | 0.423 | 0.399 | 0.367 | – | – | – | – | – | 0.538 | 0.568 | 0.587 | 0.448 | 0.317 | –
IA-LM | 0.673 | 0.584 | 0.0124 | 0.0142 | 1.15 | 0.921 | 0.9 | 0.817 | 0.848 | 0.754 | 0.735 | 0.744 | 0.704 | – | – | – | – | – | 0.843
EBC-1 | 0.317 | 0.149 | 0.119 | 0.168 | – | – | – | – | 0.599 | 0.564 | 0.28 | 0.231 | 0.259 | – | – | – | – | – | 0.524
NCI-H1703 | 0.167 | 0.156 | 0.0967 | 0.129 | – | – | – | – | 0.365 | 0.301 | 0.226 | 0.319 | 0.322 | 0.121 | 0.168 | 0.128 | 0.107 | 0.0623 | 0.216

From the supplement of paper PMC10307832
